{"source": "patent US8604030B2", "about": "“Fused piperidine compound and pharmaceutical containing same” (Kowa Company, Ltd., priority 2009, dated 2013)", "key": {"[1]": {"system": "Human proerythroblast cell line K562", "assay": "Hemoglobin production in K562 cells (porphyrin ring fluorescence)", "assay_type": "cell-based", "settings": "72 h, test compound 6 μM, 3 days + 3 days after medium replacement, 3×10^5 cells, 100% = hemoglobin produced in non-stimulated state without compound, read-out: % of Control (6 μM), amount of hemoglobin produced", "experimental": "Human proerythroblast cell line K562 (acquired from ATCC) was inoculated in aliquots of 1×10^5 cells/mL into each of the wells of a 24-well plate using complete medium (RPMI-1640 medium containing 10% fetal bovine serum), followed by the addition of the test compounds at a final concentration of 6 μM and incubating for 3 days in a CO2 incubator (37° C., 5% CO2). Culturing was continued for an additional 3 days after replacing the medium. The cells were then collected and counted followed by unifying to a cell count of 3×10^5 cells and determining the amount of hemoglobin produced in the cells by measuring the fluorescence of the porphyrin ring. Namely, the cells collected by centrifugation were suspended in 500 μL of 2 M oxalic acid, and boiled for 30 minutes and allowed to cool, followed by measuring fluorescence intensity with a fluorescent microplate reader (Spectra MAX Gemini EM, MDC Japan, Inc.) ([…]). The amount of hemoglobin induced to be produced by each compound was determined based on a value of 100% for the amount of hemoglobin produced in a non-stimulated state in the absence of addition of a compound (% of control)."}, "[2]": {"system": "Human hepatocellular carcinoma cell line HepG2", "assay": "EPO production in HepG2 culture supernatant (ELISA), 48 hours at 4% oxygen", "assay_type": "cell-based", "settings": "oxygen concentration 4%, 100% = EPO produced in non-stimulated state without compound; for activity at 10 µM: test compound 10 μM, read-out: % of Control (10 μM), produced amount of EPO; for activity at 3 µM: test compound 3 μM, read-out: % of Control (3 μM), produced amount of EPO", "experimental": "Human hepatocellular carcinoma cell line HepG2 was inoculated in aliquots of 5×10^4 cells each into each of the wells of a 48-well plate using minimum essential medium (MEM, Sigma) containing 10% fetal bovine serum. On the following day, the medium was replaced with Dulbecco's Modified Eagle Medium (DMEM, Sigma) not containing phenol red but containing 10% fetal bovine serum followed by the addition of a test compound dissolved in DMSO to a final concentration of 3 μM or 10 and bringing to a final media volume of 400 μl per well. After incubating for 48 hours in a CO2 incubator having an oxygen concentration of 4%, the culture supernatant was recovered. The concentration of EPO in the culture supernatant was measured immediately using an ELISA kit (Roche Diagnostics). The procedure used complied with that described in the instructions.\nThe produced amount of EPO derived from each compound was determined based on a value of 100% for the amount of EPO produced in a non-stimulated state in the absence of addition of a compound (% of control)."}}, "data": [{"smiles": "CC(=O)N1c2cc3c(cc2[C@H](Nc2ccc(Cl)cc2)C[C@@H]1C)OCO3", "note": "(relative stereo) [Compound 10, cis-1-[8-(4-chlorophenylamino)-6-methyl-7,8-dihydro-[1,3]dioxolo[4,5-g]quinolin-5(6H)-yl]ethanone]", "values": [{"measurement": "activity at 6 µM", "setting": "[1]", "value": 520, "unit": "%"}, {"measurement": "activity at 10 µM", "setting": "[2]", "value": 191, "unit": "%"}]}, {"smiles": "CC(=O)N1c2ncccc2[C@H](Nc2ccc(Cl)cc2)C[C@@H]1C", "note": "(relative stereo) [Compound 1, cis-1-acetyl-4-[(4-chlorophenyl)amino]-2-methyl-3,4-dihydro-2H-[1,8]-naphthyridine]", "values": [{"measurement": "activity at 6 µM", "setting": "[1]", "value": 197, "unit": "%"}, {"measurement": "activity at 3 µM", "setting": "[2]", "value": 416, "unit": "%"}]}, {"smiles": "CC(=O)N1c2ccncc2[C@H](Nc2ccc(Cl)cc2)C[C@@H]1C", "note": "(relative stereo) [Compound 2, cis-1-acetyl-4-[(4-chlorophenyl)amino]-2-methyl-3,4-dihydro-2H-[1,6]-naphthyridine]", "values": [{"measurement": "activity at 6 µM", "setting": "[1]", "value": 249, "unit": "%"}, {"measurement": "activity at 3 µM", "setting": "[2]", "value": 392, "unit": "%"}]}, {"smiles": "CC(=O)N1c2ccc3[nH]cnc3c2C(Nc2ccc(Cl)cc2)CC1C", "note": "(stereo not drawn) [Compound 8, Cis-1-acetyl-9-[(4-chlorophenyl)amino]-7-methyl-6,7,8,9-tetrahydro-1H-imiazo[4,5-f]quinoline]", "values": [{"measurement": "activity at 6 µM", "setting": "[1]", "value": 185, "unit": "%"}, {"measurement": "activity at 10 µM", "setting": "[2]", "value": 104, "unit": "%"}]}, {"smiles": "CC(=O)N1c2c(ccc3ccccc23)[C@H](Nc2ccc(Cl)cc2)C[C@@H]1C", "note": "(relative stereo) [Compound 5, cis-1-acetyl-4-[(4-chlorophenyl)amino]-2-methyl-1,2,3,4-tetrahydro-benzo[h]quinoline]", "values": [{"measurement": "activity at 10 µM", "setting": "[2]", "value": 183, "unit": "%"}]}, {"smiles": "CC(=O)N1c2ccc3[nH]ccc3c2[C@H](Nc2ccc(Cl)cc2)C[C@@H]1C", "note": "(relative stereo) [Compound 7, cis-6-acetyl-9-(4-chlorophenylamino)-7-methyl-6,7,8,9-tetrahydro-3H-pyrrolo[3,2-f]quinoline]", "values": [{"measurement": "activity at 6 µM", "setting": "[1]", "value": 436, "unit": "%"}, {"measurement": "activity at 10 µM", "setting": "[2]", "value": 137, "unit": "%"}]}, {"smiles": "CC(=O)N1c2cc3c(cc2C(Nc2ccc(Cl)cc2)CC1C)OCCO3", "note": "(centres unmarked) [Compound 11, 6-acetyl-9-[(4-chlorophenyl)amino]-7-methyl-2,3,6,7,8,9-hexahydro-[1,4]dioxano[2,3-g]quinoline]", "values": [{"measurement": "activity at 6 µM", "setting": "[1]", "value": 302, "unit": "%"}, {"measurement": "activity at 10 µM", "setting": "[2]", "value": 190, "unit": "%"}]}, {"smiles": "CC(=O)N1c2ccc3oc(=O)ccc3c2[C@H](Nc2ccc(Cl)cc2)C[C@@H]1C", "note": "(relative stereo) [Compound 9, cis-7-acetyl-10-(4-chlorophenylamino)-8-methyl-7,8,9,10-tetrahydro-3H-pyrano[3,2-f]-quinolin-3-one]", "values": [{"measurement": "activity at 6 µM", "setting": "[1]", "value": 166, "unit": "%"}, {"measurement": "activity at 10 µM", "setting": "[2]", "value": 116, "unit": "%"}]}, {"smiles": "CC(=O)N1c2cc3c(cc2C(Nc2ccc(Cl)cc2)CC1C)OCC(=O)N3", "note": "(stereo not drawn) [Compound 12, cis-6-acetyl-9-(4-chlorophenylamino)-7-methyl-6,7,8,9-tetrahydro-2H-[1,4]oxazino[2,3-g]quinolin-3-(4H)-one]", "values": [{"measurement": "activity at 10 µM", "setting": "[2]", "value": 103, "unit": "%"}]}, {"smiles": "CC(=O)N1c2cccnc2[C@H](Nc2ccc(Cl)cc2)C[C@@H]1C", "note": "(relative stereo) [Compound 3, cis-1-acetyl-4-[(4-chlorophenyl)amino]-2-methyl-3,4-dihydro-2H-[1,5]-naphthyridine]", "values": [{"measurement": "activity at 6 µM", "setting": "[1]", "value": 105, "unit": "%"}, {"measurement": "activity at 3 µM", "setting": "[2]", "value": 153, "unit": "%"}]}, {"smiles": "CC(=O)N1c2ccsc2C(Nc2ccc(Cl)cc2)CC1C", "note": "(centres unmarked) [Compound 4, 1-(7-(4-chlorophenylamino)-5-methyl-6,7-dihydrothieno[3,2-b]pyridine-4(5H)-yl)ethanone]", "values": [{"measurement": "activity at 6 µM", "setting": "[1]", "value": 135, "unit": "%"}, {"measurement": "activity at 3 µM", "setting": "[2]", "value": 137, "unit": "%"}]}]}
